Structures can show the parent of a compound that is named as a salt. Where two headings read alike, the source gives them in different places.
Columns and labels:
DOR [1] = biological target: T1, DOR (Rattus norvegicus, UniProt P33533); assay: DOR competitive radioligand binding ([3H]-DPDPE displacement, rat brain membranes)
T1 construct: from tissue; host or cells: rat brain membranes

KOR [2] = biological target: T2, KOR (Cavia porcellus, UniProt P41144); assay: KOR competitive radioligand binding ([3H]-(+)-U69,593 displacement, guinea pig brain membranes)
T2 construct: from tissue; host or cells: guinea pig brain membranes

MOR [3] = biological target: T3, MOR (Rattus norvegicus, UniProt P33535); assay: Inhibition of forskolin-stimulated cAMP accumulation in HEK293 cells stably expressing MOR; type: cell-based; settings: for Emax: maximal percent inhibition of cAMP accumulation, read-out: Imax (%) ± SD MOR
Method: As typical Gi/o coupled receptor, MOR, DOR and KOR signals are mediated by AC inhibition.
(§1) Cell culture. HEK293 cells stably expressing either the EE-tagged MOR or the flag-tagged KOR [20, 21, 22] were grown in Dulbecco’s modified Eagle’s medium (DMEM) supplemented with 10% fetal calf serum, 2 mM glutamine, 100 U/mL penicillin, and 0.1 mg/mL streptomycin under 5% CO2 at 37 °C.
(§2) Measurements of cAMP accumulation. Measurements of AC activity were performed as described by Papakonstantinou et al. or the GloSensor cAMP Assay (Promega) following the Manufacturer’s instructions. The generation of cAMP was assessed in response to treatment of the cells with various concentrations of the appropriate ligand (10 pM–50 μΜ) using 50 μΜ forskolin at 37 °C. Values are means ± SD of triplicate determinations from three independent experiments. Analysis of the data was performed using Origin 7.5 software (OriginLab Corporation, Northampton, MA, USA).

KOR [4] = biological target: T4, KOR (Homo sapiens, UniProt P41145); assay: Inhibition of forskolin-stimulated cAMP accumulation in HEK293 cells stably expressing KOR; type: cell-based; settings: for Imax (%) ± SD KOR: maximal percent inhibition of cAMP accumulation; for Imax (%) ± SD KOR / cAMP inhibition: HEK293-KOR; for cAMP inhibition: only at very high concentrations, not dose-dependent
T4 construct: FLAG; expressed in transfected cells
Method: As typical Gi/o coupled receptor, MOR, DOR and KOR signals are mediated by AC inhibition. Given the significant MOR and moderate KOR affinity, to examine the functional role of target compounds, in opioid receptor signaling, the ability of 5a–d and 6a–d to affect forskolin-stimulated AC activity in HEK293 cells stably expressing the MOR or KOR was tested and the results are reported in Table 2.
as §1, §2

MOR [5] = biological target: T3, MOR; assay: MOR competitive radioligand binding ([3H]-DAMGO displacement, rat brain membranes); design: from tissue; host or cells: rat brain membranes
[6] = tested on: acute thermal nociception; assay: Radiant heat tail flick test in mice; type: in vivo, mouse
Method: The MOR agonist 5c was evaluated for acute agonistic effects in mice. In detail, it was tested for its ability to produce antinociception in the mouse tail flick test at the dose-range of 1–7 mg/kg intraperitoneal (ip) injected. The compound produced a dose-dependent analgesic effect compared to the group of mice treated with saline (* p < 0.05 vs. saline-treated mice).
Animals. Male Swiss […] mice (Envigo Laboratories, S. Pietro al Natisone (UD), Italy) weighing 25–30 g were housed six to a cage. Animals were kept at a constant room temperature (25 ± 1 °C) under a 12:12 h light and dark cycle with free access to food and water. Each mouse was used for only one experiment.
Nociceptive Test. Nociception was evaluated by the radiant heat tail-flick test. Briefly, it consisted of irradiation of the lower third of the tail with an infrared source (Ugo Basile, Comerio, Italy). The day before the experiment, mice were habituated to the procedure for measuring nociception threshold. Experiments were performed at room temperature (25 ± 1 °C). The basal pre-drug latency was established between 3 and 5 s and was calculated as the average of the first three measurements, which were performed at 5 min intervals. A cut-off latency of 15 s was established to minimize damage to the tail. All tested compounds were dissolved in pyrogen-free isotonic saline (Baxter Healthcare, Deerfield, IL, USA) and DMSO (5%) and were administered to mice ip. Post-treatment tail flick latencies (TFLs) were determined at 30, 45, 60, 75 and 90 min after ip injection.
Statistical Analysis. All values were presented as means ± SD. Intergroup comparisons were assessed using an initial two-way analysis of variance (ANOVA) followed by Duncan’s multiple range post-hoc test. Differences were considered significant when * p < 0.05. Effective dose-50 (ED50) values were calculated using least-squares linear regression analysis followed by calculation of 95% confidence limits (95% CL) by the method of Bliss.

DOR [7] = tested on: DOR; design: method as in PMID 20599386; settings: earlier work; read-out: IC50 DOR (intrinsic activity); cited from earlier work
[8] = design: method as in PMID 22100511, PMID 22580287; settings: in vivo tested; cited from earlier work

Row | Compound | melting point | Ki (DOR [1]) | Ki (KOR [2]) | Emax (MOR [3]) | Ki (MOR [5]) | other results
1 | C[C@H]1[C@H]2Cc3ccc(O)cc3[C@]1(C)CCN2CCNc1ccccc1 (as salt: oxalate) [5a, (2R,6R,11R)-3-(2-Anilinoethyl)-6,11-dimethyl-1,2,3,4,5,6-hexahydro-2,6-methano-3-benzazocin-8-ol] | 145 to 146 °C | – | – | – | – | –
2 | C[C@H]1[C@H]2Cc3ccc(O)cc3[C@]1(C)CCN2CCNC1CCCCC1 (as salt: oxalate) [5b, (2R,6R,11R)-3-[2-(Cyclohexylamino)ethyl)-6,11-dimethyl-1,2,3,4,5,6-hexahydro-2,6-methano-3-benzazocin-8-ol] | 153 to 155 °C | – | – | – | – | –
3 | CCN(CCN1CC[C@@]2(C)c3cc(O)ccc3C[C@@H]1[C@@H]2C)c1ccccc1 (as salt: oxalate) [5d, (2R,6R,11R)-6,11-Dimethyl-{2-[ethyl(phenyl)amino]ethyl}-1,2,3,4,5,6-hexahydro-2,6-methano-3-benzazocin-8-ol] | 158 to 160 °C | – | – | – | – | –
4 | C[C@H]1[C@H]2Cc3ccc(O)cc3[C@]1(C)CCN2CCCNc1ccccc1 (as salt: oxalate) [6a, (2R,6R,11R)-3-(3-Anilinopropyl)-6,11-dimethyl-1,2,3,4,5,6-hexahydro-2,6-methano-3-benzazocin-8-ol] | 149 to 150 °C | – | – | – | – | –
5 | C[C@H]1[C@H]2Cc3ccc(O)cc3[C@]1(C)CCN2CCCNC1CCCCC1 (as salt: oxalate) [6b, (2R,6R,11R)-3-[3-(Cyclohexylamino)propyl)-6,11-dimethyl-1,2,3,4,5,6-hexahydro-2,6-methano-3-benzazocin-8-ol] | 136 to 138 °C | – | – | – | – | –
6 | C[C@H]1[C@H]2Cc3ccc(O)cc3[C@]1(C)CCN2CCCN(C)c1ccccc1 (as salt: oxalate) [6c, (2R,6R,11R)-6,11-Dimethyl-{3-[methyl(phenyl)amino]propyl}-1,2,3,4,5,6-hexahydro-2,6-methano-3-benzazocin-8-ol] | 140 to 142 °C | – | – | – | – | –
7 | CCN(CCCN1CC[C@@]2(C)c3cc(O)ccc3C[C@@H]1[C@@H]2C)c1ccccc1 (as salt: oxalate) [6d, (2R,6R,11R)-6,11-Dimethyl-{3-[ethyl(phenyl)amino]propyl}-1,2,3,4,5,6-hexahydro-2,6-methano-3-benzazocin-8-ol] | 138 to 139 °C | – | – | – | – | –
8 | C[C@H]1[C@H]2Cc3ccc(O)cc3[C@]1(C)CCN2CCNc1ccccc1 [5a, (2R,6R,11R)-3-(2-Anilinoethyl)-6,11-dimethyl-1,2,3,4,5,6-hexahydro-2,6-methano-3-benzazocin-8-ol] | – | 270 ± 10 nM | 100 ± 5 nM | 60 ± 4% | 83 ± 30 nM | IC50 (KOR [4]): 1000 ± 65 nM
9 | C[C@H]1[C@H]2Cc3ccc(O)cc3[C@]1(C)CCN2CCNC1CCCCC1 [5b, (2R,6R,11R)-3-[2-(Cyclohexylamino)ethyl)-6,11-dimethyl-1,2,3,4,5,6-hexahydro-2,6-methano-3-benzazocin-8-ol] | – | 70 ± 2 nM | 19.8 ± 0.9 nM | 28 ± 1% | 8.3 ± 0.8 nM | IC50 (KOR [4]): 180 ± 50 nM; Imax (%) ± SD KOR (KOR [4]): 58 ± 4%
10 | C[C@H]1[C@H]2Cc3ccc(O)cc3[C@]1(C)CCN2CCN(C)c1ccccc1 [5c, (2R,6R,11R)-6,11-Dimethyl-{2-[methyl(phenyl)amino]ethyl}-1,2,3,4,5,6-hexahydro-2,6-methano-3-benzazocin-8-ol] | – | 147 ± 5.7 nM | 31 ± 1.3 nM | 72% | 6.1 ± 0.5 nM | Functional profile at MOR (MOR [3]; cAMP accumulation): MOR agonist; cAMP inhibition (KOR [4]): 30%; ED50 ([6]; 0.75 h, mouse tail flick, ip, 45 min post-treatment, read-out: ED50 (95% CL)): 4.33 mg/kg; Time of maximal antinociceptive activity ([6]; after ip injection, mouse tail flick): 45 min; Duration of significant antinociceptive activity ([6]; highest dose (7 mg/kg ip), after injection): 75 min; Effect of naloxone pretreatment on antinociception ([6]; naloxone 3 mg/kg sc, 30 min prior to 5c, data not shown): prevented its antinociceptive effect
11 | CCN(CCN1CC[C@@]2(C)c3cc(O)ccc3C[C@@H]1[C@@H]2C)c1ccccc1 [5d, (2R,6R,11R)-6,11-Dimethyl-{2-[ethyl(phenyl)amino]ethyl}-1,2,3,4,5,6-hexahydro-2,6-methano-3-benzazocin-8-ol] | – | 411 ± 14 nM | 28.7 ± 1 nM | 55 ± 3% | 160 ± 7 nM | cAMP inhibition (KOR [4]): 30%
12 | C[C@H]1[C@H]2Cc3ccc(O)cc3[C@]1(C)CCN2CCCNc1ccccc1 [6a, (2R,6R,11R)-3-(3-Anilinopropyl)-6,11-dimethyl-1,2,3,4,5,6-hexahydro-2,6-methano-3-benzazocin-8-ol] | – | 117 ± 5.2 nM | 71 ± 2 nM | 50 ± 3% | 7 ± 0.6 nM | IC50 (KOR [4]): 1400 ± 69 nM; Imax (%) ± SD KOR (KOR [4]): 53 ± 4%
13 | C[C@H]1[C@H]2Cc3ccc(O)cc3[C@]1(C)CCN2CCCNC1CCCCC1 [6b, (2R,6R,11R)-3-[3-(Cyclohexylamino)propyl)-6,11-dimethyl-1,2,3,4,5,6-hexahydro-2,6-methano-3-benzazocin-8-ol] | – | > 5000 nM | 126 ± 4.5 nM | – | 48 ± 1.4 nM | IC50 (KOR [4]): > 5000 nM; Imax (%) ± SD KOR (KOR [4]): 44 ± 3%
14 | C[C@H]1[C@H]2Cc3ccc(O)cc3[C@]1(C)CCN2CCCN(C)c1ccccc1 [6c, (2R,6R,11R)-6,11-Dimethyl-{3-[methyl(phenyl)amino]propyl}-1,2,3,4,5,6-hexahydro-2,6-methano-3-benzazocin-8-ol] | – | > 5000 nM | 94 ± 3.5 nM | 50 ± 3% | 68 ± 1.6 nM | cAMP inhibition (KOR [4]): 30%
15 | CCN(CCCN1CC[C@@]2(C)c3cc(O)ccc3C[C@@H]1[C@@H]2C)c1ccccc1 [6d, (2R,6R,11R)-6,11-Dimethyl-{3-[ethyl(phenyl)amino]propyl}-1,2,3,4,5,6-hexahydro-2,6-methano-3-benzazocin-8-ol] | – | 1060 ± 152 nM | 56 ± 1.7 nM | 40 ± 2% | 86 ± 3 nM | cAMP inhibition (KOR [4]): 30%
16 | C[C@@H](NC(=O)[C@@H](N)Cc1ccc(O)cc1)C(=O)NCC(=O)N(C)[C@@H](Cc1ccccc1)C(=O)NCCO [DAMGO, reference compound] | – | – | – | 73 ± 0.3% | – | –
17 | C[C@H]1[C@H]2Cc3ccc(O)cc3[C@]1(C)CCN2CCC(=O)Nc1ccccc1 [LP1, reference compound] | – | – | – | 73 ± 3.8% | – | Ki (DOR [1]; [3H]DPDPE displacement, rat brain membranes, read-out: Ki (nM) ± SEM DOR): 29.1 ± 1 nM; Ki (KOR [2]; [3H]U69,593 displacement, guinea pig brain membranes, read-out: Ki (nM) ± SEM KOR): 110 ± 6 nM; IC50 (DOR [7]): 12 nM; ED50 (analgesia) [8]: 2.03 mg/kg; Ki (MOR [5]; [3H]DAMGO displacement, rat brain membranes, read-out: Ki (nM) ± SEM MOR): 0.83 ± 0.05 nM
18 | Oc1ccc2c3c1O[C@H]1c4[nH]c5ccccc5c4C[C@@]4(O)[C@@H](C2)N(CC2CC2)CC[C@]314 [Naltrindole, reference compound] | – | 1.13 ± 0.1 nM | – | – | – | –

— publication PMC6017588, “Synthesis and Structure-Activity Relationships of LP1 Derivatives: N-Methyl-N-phenylethylamino Analogues as Novel MOR Agonists” (Molecules : A Journal of Synthetic Chemistry and Natural …, 2018)
